The values that follow are results of earlier work, collected in patent US8366600B2, “Polyamine enhanced formulations for triptan compound iontophoresis” (NuPathe Inc., priority 2008, dated 2013).

A word on the Cmax: it is the maximum level reached in the sampled fluid or tissue. The AUC is the area under the concentration-time curve, a measure of exposure.

The structures appear in SMILES notation.

For series [1] the following is noted: for Cmax: expected maximum concentration in the patient's plasma; for AUC: total plasma concentration.
For series [2] the following is noted: transdermal, iontophoresis vs passive.

Take `CN(C)CCc1c[nH]c2ccc(CS(=O)(=O)N3CCCC3)cc12` [Almotriptan]: in series [1], the Cmax is 52 ng/mL and the exposure (AUC) is 310 ng·h/mL.
In the case of `CN1CCC[C@@H]1Cc1c[nH]c2ccc(CCS(=O)(=O)c3ccccc3)cc12` [Eletriptan], in series [1], the Cmax was 200 ng/mL and the area under the curve (AUC) is on record as 1,300 ng · hr/mL.
Turning to `CN[C@@H]1CCc2[nH]c3ccc(C(N)=O)cc3c2C1` [Frovatriptan], in series [1], the Cmax is on record as 5 ng/mL and the exposure (AUC) is 45 ng·h/mL.
Consider `CNS(=O)(=O)CCc1ccc2[nH]cc(C3CCN(C)CC3)c2c1` [Naratriptan], for which, in series [1], the Cmax was 8 ng/mL and the AUC was 75 ng·h/mL.
Turning to `CN(C)CCc1c[nH]c2ccc(Cn3cncn3)cc12` [Rizatriptan], in series [1], the maximum concentration (Cmax) is reported as 22 ng/mL and the AUC is 78 ng·h/mL.
As to `CNS(=O)(=O)Cc1ccc2[nH]cc(CCN(C)C)c2c1` [Sumatriptan], in series [2], the “rate of iontophoretic transport relative to passive transport” value is given as 385 fold.
On to `CN(C)CCc1c[nH]c2ccc(C[C@H]3COC(=O)N3)cc12` [Zolmitriptan], for which, in series [1], the highest concentration (Cmax) is 4 ng/mL and the AUC is 20 ng·h/mL.
